The values below come from the SangsterLogP compilation.

On to `Nc1ccc(Oc2ccccc2)cc1`, for which the logP came to 2.36.
As to `CC(=O)Nc1ccccc1O`, the logP amounted to 0.72.
Take `COc1ccccc1N(C)C`: the logP was determined as 1.63.
Compound `CSc1ccccc1N` gave a logP of 1.2.
Take `O=C(O)c1ccc(Oc2ccccc2)cc1`: the logP amounted to 3.21.
On to `Cc1ccccc1C=O`, for which the logP was 2.26.
Consider `CS(=O)(=O)c1ccc(C(=O)O)cc1`, for which the log partition coefficient (logP) was found to be 0.67.
As to `O=C(O)Cc1ccc(C(F)(F)F)cc1`, the logP came out at 2.45.
On to `CC(=O)Nc1ccccc1C(=O)O`, for which the logP was determined as 1.73.
`CC(=O)Oc1ccc(C)cc1` displayed a log partition coefficient (logP) of 2.11.
On to `CSc1ccc(C(=O)O)cc1`, for which the logP worked out at 2.74.
Then `CS(=O)(=O)c1ccc(N)cc1`, with -0.12; and `N#Cc1ccccc1O`, with 1.59; and `Cc1cccc(N(C)C)c1`, with 2.8.
In turn, `O=Cc1ccc(OCC(=O)O)cc1` came in with a logP of 0.79.
For `CC(=O)Nc1cccc(O)c1`, the logP was 0.73.
For the compound `COc1ccc(N(C)C)cc1`, the logP was determined as 1.42.
In turn, `CSc1ccc(O)cc1` showed a log partition coefficient (logP) of 1.78.
The result for `Nc1ccccc1Oc1ccccc1` reads 2.46.
`CSc1cccc(N)c1`: the lipophilicity (logP) came to 1.45.
Turning to `Oc1cccc(-c2ccccc2)c1`, the logP is 3.23.
`COc1ccccc1Oc1ccccc1` yielded a logP of 2.92.
In the case of `CC(=O)Oc1cccc(C)c1`, the logP is 2.09.

By logP is commonly meant a log measure of how a compound divides between an organic and an aqueous phase. Read a low logP as lower lipophilicity.
